pIC50: −log10 of the molar value.
What was measured:
protein kinase C = test: Inhibition of protein kinase C activated with phosphatidylserine and diacylglycerol (in vitro enzyme assay); format: biochemical; conditions: for pIC50: activated with phosphatidylserine and diacylglycerol, read-out: Inhibiton (IC50) C-Kinase
[1] = target: T1, cAMP-dependent protein kinase (catalytic subunit) (Homo sapiens, UniProt P17612); test: cAMP-dependent protein kinase (A kinase) test, 32P-phosphate incorporation into histone; format: biochemical
T1 construct: purchased
Protocol: (§1) The determination the inhibition of the cAMP- and of the cGMP-dependent protein kinase took place according to the test description below.
cAMP-dependent protein kinase: The measurement of the activity takes place with the commercially available catalytic subunits of the enzyme. The incorporation of phosphorus 32-labeled phosphate into histone is thereby measured. A reaction batch of 200 μL contains the following components: 50 mM PIPES-NaOH (pH 7.5), 10 mM magnesium chloride, 1 mM DTT, 40 μM ATP, as well as 50 μg histone H-2B. The test is carried out as in the case of G kinase. The reaction is thereby started by the addition of 6 units of the catalytic subunit of the cAMP-dependent protein kinase.

[2] = target: T2, cGMP-dependent protein kinase (Bos taurus, UniProt P00516); test: cGMP-dependent protein kinase (G kinase) test, 32P-phosphate incorporation into histone; format: biochemical, bovine
T2 construct: The enzyme was obtained from bovine lung tissue and purified; from tissue; host or cells: bovine lung
T2 sequence (P00516 1-671): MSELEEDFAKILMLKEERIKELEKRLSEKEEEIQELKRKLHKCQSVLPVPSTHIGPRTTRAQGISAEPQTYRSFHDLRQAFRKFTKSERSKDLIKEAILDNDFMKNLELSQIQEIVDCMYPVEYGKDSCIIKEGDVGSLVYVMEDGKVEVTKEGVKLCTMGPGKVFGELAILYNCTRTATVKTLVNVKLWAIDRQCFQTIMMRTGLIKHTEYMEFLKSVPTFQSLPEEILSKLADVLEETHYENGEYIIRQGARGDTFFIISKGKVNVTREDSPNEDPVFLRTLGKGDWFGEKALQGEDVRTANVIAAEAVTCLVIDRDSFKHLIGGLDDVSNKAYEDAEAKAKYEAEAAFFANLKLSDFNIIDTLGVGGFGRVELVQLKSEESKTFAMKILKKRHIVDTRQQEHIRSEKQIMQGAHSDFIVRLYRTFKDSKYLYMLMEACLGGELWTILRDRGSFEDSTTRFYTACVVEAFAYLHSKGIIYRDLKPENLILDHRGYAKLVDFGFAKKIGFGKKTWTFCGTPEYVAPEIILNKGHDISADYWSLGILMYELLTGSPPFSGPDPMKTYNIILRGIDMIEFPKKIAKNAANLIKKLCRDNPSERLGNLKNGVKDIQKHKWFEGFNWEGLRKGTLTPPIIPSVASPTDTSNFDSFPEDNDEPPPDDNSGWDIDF
Protocol: as §1
cGMP-dependent protein kinase: The enzyme was obtained from bovine lung tissue and purified and its activity determined via the incorporation of phosphorus 32-labeled phosphate into histone. The following components are contained in a test batch of 200 μL: 20 mM Tris-HCl (pH 7.4), 5 mM magnesium chloride, 1 mM DTT, 10 μM ATP, […], 40 μg BSA, 2% glycerol, as well as 10 μg histone II-A and possibly the substance to be investigated. […] After incubating for 5 minutes at 30° C., the reaction is stopped by the addition of 10% trichloroacetic acid and the samples then filtered off over a nitrocellulose filter. The phosphate incorporation is determined by Cerenkov counting in a scintillation counter and the percentage inhibition calculated therefrom.

Q: `O=C1NC(=O)c2c1c1c3ccccc3n3c1c1c2c2ccccc2n1C1CCC3O1` [I, 9,10,11,12-tetrahydro-9,l2-epoxy-1H-diindolo[1,2,3-fg: 3',2',1',kl]pyrrolo[3,4-i][1,6]benzodiazocine-1,3(2H)-dione] was tested. Which pIC50 (protein kinase C) did it give?
A: 7.55

Q: And the pIC50 [1]?
A: 5.26

Q: What about the “Ratio IC50 kinase / IC50 C-Kinase, A/C” value ([1]; A-kinase versus C-kinase) of the same molecule?
A: 196

Q: What about the pIC50 [2] of the same molecule?
A: 6.28

Q: What about the “Ratio IC50 kinase / IC50 C-Kinase, G/C” value ([2]; G-kinase versus C-kinase) of the same molecule?
A: 19

Q: `O=C1c2c(c3c4ccccc4n4c3c3c2c2ccccc2n3C2CCC4O2)C(=O)N1Cc1ccccc1` [III] was tested. Which pIC50 (protein kinase C) did it give?
A: < 5.00

Q: And the “inhibition of protein kinase C at a single concentration” value (protein kinase C; concentration of 10^-5 M, same conditions of the in vitro enzyme assay)?
A: does not display a significant inhibition

Source: patent US5043335A, “Indolocarbazoles and the use thereof” (Godecke Aktiengesellschaft, priority 1989, dated 1991)
